{"source": "paper PMC5911580", "about": "“YL143, a novel mutant selective irreversible EGFR inhibitor, overcomes EGFR^L858R, T790M‐mutant resistance in vitro and in vivo” (Cancer Medicine, 2018)", "key": {"PDGFRB": {"target": "PDGFRB (Homo sapiens, UniProt P09619)", "sequence (P09619 33-1106, species assumed)": "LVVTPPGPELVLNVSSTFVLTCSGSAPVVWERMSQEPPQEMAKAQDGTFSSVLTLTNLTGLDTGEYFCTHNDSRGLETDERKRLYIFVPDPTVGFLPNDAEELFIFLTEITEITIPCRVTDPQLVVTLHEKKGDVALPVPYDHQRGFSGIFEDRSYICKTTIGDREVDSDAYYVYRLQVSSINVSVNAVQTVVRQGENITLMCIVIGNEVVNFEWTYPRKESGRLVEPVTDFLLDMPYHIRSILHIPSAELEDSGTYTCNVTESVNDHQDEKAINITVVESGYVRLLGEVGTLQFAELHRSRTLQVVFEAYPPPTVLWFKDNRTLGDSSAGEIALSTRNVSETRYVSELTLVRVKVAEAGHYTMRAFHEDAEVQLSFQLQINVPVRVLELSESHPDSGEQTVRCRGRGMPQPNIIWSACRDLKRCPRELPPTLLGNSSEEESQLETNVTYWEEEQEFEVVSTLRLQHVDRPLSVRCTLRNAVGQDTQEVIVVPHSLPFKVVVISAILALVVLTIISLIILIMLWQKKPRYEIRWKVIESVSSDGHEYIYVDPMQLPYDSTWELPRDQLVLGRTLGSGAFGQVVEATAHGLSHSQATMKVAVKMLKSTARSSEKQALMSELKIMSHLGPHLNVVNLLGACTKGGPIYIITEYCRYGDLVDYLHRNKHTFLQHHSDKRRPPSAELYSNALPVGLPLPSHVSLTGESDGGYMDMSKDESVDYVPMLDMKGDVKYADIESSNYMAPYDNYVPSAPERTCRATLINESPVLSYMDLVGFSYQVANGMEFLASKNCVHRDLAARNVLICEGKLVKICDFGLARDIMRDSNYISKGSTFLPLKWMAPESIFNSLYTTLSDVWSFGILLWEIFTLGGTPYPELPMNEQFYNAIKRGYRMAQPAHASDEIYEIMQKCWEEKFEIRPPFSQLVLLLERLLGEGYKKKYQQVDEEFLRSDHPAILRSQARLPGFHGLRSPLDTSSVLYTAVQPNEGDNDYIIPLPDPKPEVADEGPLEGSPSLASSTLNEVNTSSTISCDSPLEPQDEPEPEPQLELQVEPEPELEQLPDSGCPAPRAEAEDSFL", "experiment": "Z'-Lyte kinase panel, PDGFRB", "format": "biochemical", "details": "1.5 hrs incubation", "protocol": "(§1) Kinase activity assays were performed using the FRET-based Z′-Lyte assay according to the manufacturer’s instructions. The compounds were incubated with the kinase reaction mixture for 1.5 hrs before measurement. The data are means from two independent experiments and the variations are below 20%."}, "AKT1": {"target": "AKT1 (Homo sapiens, UniProt P31749)", "sequence (P31749 whole entry, species assumed)": "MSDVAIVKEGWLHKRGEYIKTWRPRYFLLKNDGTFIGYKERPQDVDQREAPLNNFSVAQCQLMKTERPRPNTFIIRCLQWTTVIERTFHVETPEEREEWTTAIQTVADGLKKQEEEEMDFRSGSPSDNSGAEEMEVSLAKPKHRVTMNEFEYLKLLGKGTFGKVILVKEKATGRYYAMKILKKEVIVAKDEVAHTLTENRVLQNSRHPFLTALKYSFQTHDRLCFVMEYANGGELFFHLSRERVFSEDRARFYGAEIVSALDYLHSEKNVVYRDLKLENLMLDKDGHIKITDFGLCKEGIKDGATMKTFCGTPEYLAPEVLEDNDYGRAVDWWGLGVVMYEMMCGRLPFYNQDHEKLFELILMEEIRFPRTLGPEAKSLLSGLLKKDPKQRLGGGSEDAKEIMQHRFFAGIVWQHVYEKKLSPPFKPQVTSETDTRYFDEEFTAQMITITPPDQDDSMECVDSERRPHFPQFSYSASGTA", "experiment": "Z'-Lyte kinase panel, AKT1", "format": "biochemical", "details": "1.5 hrs incubation", "protocol": "as §1"}, "[1]": {"tested_on": "CDK2, CDK4, cyclin D2, cyclin E, caspase-3, caspase-9 in H1975 cells", "experiment": "Western blot of cell cycle and apoptosis proteins in H1975 cells", "format": "cell-based, human", "details": "3 to 300 nmol/L, 48 h", "protocol": "(§2) Cells were treated with various concentrations of compound for designed time. Then, cells were lysed using 1 × SDS sample lysis buffer (CST recommended) with protease and phosphatase inhibitors. Cell lysates were loaded and electrophoresed onto 8–12% SDS‐PAGE gel, and then, separated proteins were transferred to a PVDF film. The film was blocked with 5% fat‐free milk in TBS solution containing 0.5% Tween‐20 for 4 h at room temperature and then incubated with corresponding primary antibody (1:1000–1:200) overnight at 4°C. After washing with TBST, HRP‐conjugated secondary antibody was incubated for 2 h. And the protein signals were visualized by ECL Western Blotting Detection Kit (Thermo Scientific, Waltham, MA) and detected with Amersham Imager 600 system (GE, America).\nFigure 3 YL143 induces G0/G1 cell cycle arrest and apoptosis in H1975 cells. (A) YL143 induces G0/G1 cell cycle arrest in H1975 cells H1975 cells were treated with 3, 30 or 300 nmol/L for 48 h before DNA labeling by propidium iodide and cell cycle analysis by flow cytometry. (B) YL143 induces apoptosis in H1975 cells. H1975 cells were treated with 3, 30 or 300 nmol/L for 48 h before DNA labeling by Annexin V and 7‐AAD and cell apoptosis analysis by flow cytometry. (C) The effect of YL143 on the expression of CDK4, Cyclin D2, CDK2, Cyclin E, Caspase‐9 and Caspase‐3 was tested by western blotting. […]"}, "ZAK": {"target": "ZAK (Homo sapiens, UniProt Q9NYL2)", "sequence (Q9NYL2 whole entry, species assumed)": "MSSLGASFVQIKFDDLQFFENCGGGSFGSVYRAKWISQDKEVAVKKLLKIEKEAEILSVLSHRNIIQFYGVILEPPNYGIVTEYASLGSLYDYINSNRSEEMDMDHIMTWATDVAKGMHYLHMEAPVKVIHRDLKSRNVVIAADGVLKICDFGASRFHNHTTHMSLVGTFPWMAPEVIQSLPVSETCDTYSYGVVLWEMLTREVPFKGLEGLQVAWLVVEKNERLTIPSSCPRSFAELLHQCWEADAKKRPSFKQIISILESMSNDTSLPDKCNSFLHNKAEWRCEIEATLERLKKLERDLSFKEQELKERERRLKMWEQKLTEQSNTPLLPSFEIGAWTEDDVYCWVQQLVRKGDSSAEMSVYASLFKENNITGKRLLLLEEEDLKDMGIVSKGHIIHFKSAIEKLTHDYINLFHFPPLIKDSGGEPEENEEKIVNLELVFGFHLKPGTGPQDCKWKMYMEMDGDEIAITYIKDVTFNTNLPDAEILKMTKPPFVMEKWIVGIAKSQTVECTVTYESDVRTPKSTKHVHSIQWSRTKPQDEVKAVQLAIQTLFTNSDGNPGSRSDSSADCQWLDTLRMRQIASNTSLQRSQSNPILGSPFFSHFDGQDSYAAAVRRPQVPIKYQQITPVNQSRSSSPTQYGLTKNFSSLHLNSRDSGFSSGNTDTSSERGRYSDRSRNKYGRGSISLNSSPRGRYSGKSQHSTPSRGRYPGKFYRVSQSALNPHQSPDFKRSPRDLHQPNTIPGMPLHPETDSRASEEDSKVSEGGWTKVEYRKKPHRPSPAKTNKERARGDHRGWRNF", "experiment": "Z'-Lyte kinase panel, ZAK", "format": "biochemical", "details": "1.5 hrs incubation", "protocol": "as §1"}, "BaF3": {"tested_on": "BaF3", "experiment": "CCK-8 assay, BaF3 cells", "format": "cell-based", "details": "Mus musculus, AV±SD, read-out: anti-proliferative activity BaF3", "protocol": "(§3) Cells were seeded into 96‐well plates at a density of 1500~3000/well in complete medium overnight. Then, cells were treated with various concentrations (0.01~1000 nmol/L) of YL143 for additional 3 days. Viable cell numbers were determined by Cell Counting Kit 8 (CCK8, CK04, Dojindo Laboratories, Japan). Each assay consisted of three replicate wells and repeated at least three times. […] Each IC50 value was expressed as mean ± SD.\n(§4) The anti-proliferative activities of the compounds were evaluated using CCK-8 assay. The data were means from at least four independent experiments."}, "EGFR": {"target": "T1, EGFR (Homo sapiens, UniProt P00533)", "T1 construct": "purchased Invitrogen", "T1 sequence (P00533 669-1210 limits assumed)": "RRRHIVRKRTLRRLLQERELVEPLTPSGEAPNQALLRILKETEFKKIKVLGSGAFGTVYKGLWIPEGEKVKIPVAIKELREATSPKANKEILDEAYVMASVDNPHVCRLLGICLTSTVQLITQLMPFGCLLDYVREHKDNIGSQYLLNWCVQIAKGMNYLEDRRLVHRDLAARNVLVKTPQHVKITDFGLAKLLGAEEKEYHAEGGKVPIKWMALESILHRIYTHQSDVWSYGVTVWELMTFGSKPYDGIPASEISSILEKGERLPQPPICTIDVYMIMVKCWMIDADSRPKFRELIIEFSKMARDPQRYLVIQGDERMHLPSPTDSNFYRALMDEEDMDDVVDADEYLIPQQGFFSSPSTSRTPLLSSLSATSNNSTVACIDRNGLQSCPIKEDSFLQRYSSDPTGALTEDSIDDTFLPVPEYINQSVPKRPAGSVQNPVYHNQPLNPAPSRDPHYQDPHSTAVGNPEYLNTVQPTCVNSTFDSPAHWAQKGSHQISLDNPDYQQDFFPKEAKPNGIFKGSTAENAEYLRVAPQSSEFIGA", "experiment": "Z'-Lyte kinase panel, EGFR", "format": "biochemical", "details": "1.5 hrs incubation", "protocol": "All EGFR (WT, L858R, L858R/T790M, etc.) recombinant human protein was purchased from Invitrogen. The kinase activity assay was performed and optimized according to the instructions of Z’‐LYTE™ kinase assay kits from the manufacturer (PV4879, Life, America). In our experiments, 10 concentration gradients from 0.01 nmol/L to 1.0 μmol/L were used for all the compounds.\nas §1"}, "A431 (EGFR^WT) cells": {"tested_on": "A431 (EGFR^WT) cells", "experiment": "CCK-8 cell growth assay, A431", "format": "cell-based", "details": "Homo sapiens, A-431; CCK-8, 72 h; read-out: antiproliferative IC50 A431", "protocol": "as §3"}, "BaF3-EGFR ^L858R": {"tested_on": "BaF3-EGFR ^L858R", "experiment": "CCK-8 assay, BaF3-EGFR L858R stable cells", "format": "cell-based", "details": "Ba/F3 EGFR-L858R; CCK-8; AV±SD; read-out: anti-proliferative activity BaF3-EGFR L858R", "protocol": "as §3, §4"}, "[2]": {"tested_on": "H1975 (EGFR^L858R/T790M) cells", "experiment": "CCK-8 cell growth assay, H1975", "format": "cell-based", "details": "Homo sapiens, NCI-H1975; CCK-8, 72 h; AV ± SD; read-out: antiproliferative IC50 H1975", "protocol": "as §3"}, "AKT3": {"target": "AKT3 (Homo sapiens, UniProt Q9Y243)", "sequence (Q9Y243 whole entry, species assumed)": "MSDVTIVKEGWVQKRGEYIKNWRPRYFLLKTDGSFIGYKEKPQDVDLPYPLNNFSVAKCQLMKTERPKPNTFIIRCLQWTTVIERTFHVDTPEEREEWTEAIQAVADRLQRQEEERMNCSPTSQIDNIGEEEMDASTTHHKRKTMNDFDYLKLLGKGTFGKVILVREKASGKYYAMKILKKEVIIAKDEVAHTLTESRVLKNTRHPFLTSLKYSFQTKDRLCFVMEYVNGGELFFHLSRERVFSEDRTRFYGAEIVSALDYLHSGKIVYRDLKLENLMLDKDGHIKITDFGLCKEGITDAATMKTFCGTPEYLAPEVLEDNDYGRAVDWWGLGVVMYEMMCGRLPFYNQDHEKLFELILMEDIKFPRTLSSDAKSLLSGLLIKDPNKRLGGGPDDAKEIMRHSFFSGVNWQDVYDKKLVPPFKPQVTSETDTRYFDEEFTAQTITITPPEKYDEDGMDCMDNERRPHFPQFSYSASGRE", "experiment": "Z'-Lyte kinase panel, AKT3", "format": "biochemical", "details": "1.5 hrs incubation", "protocol": "as §1"}, "FLT3": {"target": "FLT3 (Homo sapiens, UniProt P36888)", "sequence (P36888 27-993, species assumed)": "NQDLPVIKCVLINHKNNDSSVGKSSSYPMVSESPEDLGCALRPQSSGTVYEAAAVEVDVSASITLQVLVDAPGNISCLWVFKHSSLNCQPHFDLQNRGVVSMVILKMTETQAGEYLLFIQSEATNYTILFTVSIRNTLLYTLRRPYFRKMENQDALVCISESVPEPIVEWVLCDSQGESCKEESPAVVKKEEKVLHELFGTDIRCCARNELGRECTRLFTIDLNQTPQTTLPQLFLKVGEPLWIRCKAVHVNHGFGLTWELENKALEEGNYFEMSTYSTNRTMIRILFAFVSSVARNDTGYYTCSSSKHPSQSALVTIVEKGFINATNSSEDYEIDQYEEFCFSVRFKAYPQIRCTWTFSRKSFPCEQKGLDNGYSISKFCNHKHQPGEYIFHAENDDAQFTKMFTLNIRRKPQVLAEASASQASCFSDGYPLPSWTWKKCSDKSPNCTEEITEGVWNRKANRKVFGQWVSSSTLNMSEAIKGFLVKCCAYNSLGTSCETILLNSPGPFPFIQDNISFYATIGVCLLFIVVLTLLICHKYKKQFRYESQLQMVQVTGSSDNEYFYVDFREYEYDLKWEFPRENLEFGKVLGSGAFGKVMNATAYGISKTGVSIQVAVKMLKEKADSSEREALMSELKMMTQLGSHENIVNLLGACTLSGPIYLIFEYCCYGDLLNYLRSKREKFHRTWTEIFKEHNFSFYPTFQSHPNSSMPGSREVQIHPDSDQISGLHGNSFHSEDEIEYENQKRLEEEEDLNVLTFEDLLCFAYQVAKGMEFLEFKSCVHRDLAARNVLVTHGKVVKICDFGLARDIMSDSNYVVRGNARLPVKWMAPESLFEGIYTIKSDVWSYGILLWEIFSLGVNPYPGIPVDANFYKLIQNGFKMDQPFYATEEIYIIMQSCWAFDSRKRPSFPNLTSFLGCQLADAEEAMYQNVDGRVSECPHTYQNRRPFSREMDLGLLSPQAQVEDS", "experiment": "Z'-Lyte kinase panel, FLT3", "format": "biochemical", "details": "1.5 hrs incubation", "protocol": "as §1"}, "[3]": {"tested_on": "EGFR signal pathway in A431 cells", "experiment": "Western blot of EGFR signaling in A431 cells", "format": "cell-based", "details": "compared with H1975", "protocol": "as §2\nThe selective EGFR ^L858R/T790M inhibition of YL143 was investigated in H1975, HCC827, A549, and A431 cancer cells harboring different statuses of EGFR by Western blotting analysis (Fig. 2A)."}}, "data": [{"smiles": "C=CC(=O)Nc1cc(C)cc(-n2c(=O)cc(C)c3cnc(Nc4ccc(N5CCN(C)CC5)cc4OC)nc32)c1", "note": "[YL143, N‐(3‐(2‐((2‐Methoxy‐4‐(4‐methylpiperazin‐1‐yl)phenyl)amino)‐5‐methyl‐7‐oxopyrido [2,3‐d]pyrimidin‐8(7H)‐yl)‐5‐methylphenyl)acrylamide]", "values": [{"measurement": "IC50", "setting": "PDGFRB", "value": "> 10000", "unit": "nM"}, {"measurement": "IC50", "setting": "AKT1", "value": "> 10000", "unit": "nM"}, {"measurement": "protein levels of CDK2, CDK4, cyclin D2, cyclin E", "setting": "[1]", "value": "dose‐dependently decreased"}, {"measurement": "IC50", "setting": "ZAK", "value": "> 10000", "unit": "nM"}, {"measurement": "IC50", "setting": "BaF3", "value": "> 10000", "unit": "nM"}, {"measurement": "IC50", "setting": "EGFR", "value": 35.3, "unit": "nM"}, {"measurement": "IC50", "setting": "A431 (EGFR^WT) cells", "value": "> 1000", "unit": "nM"}, {"measurement": "IC50", "setting": "BaF3-EGFR ^L858R", "value": "71 ± 41", "unit": "nM"}, {"measurement": "IC50", "setting": "[2]", "value": "45.2 ± 27.3", "unit": "nM"}, {"measurement": "IC50", "setting": "AKT3", "value": "> 10000", "unit": "nM"}, {"measurement": "IC50", "setting": "FLT3", "value": "> 10000", "unit": "nM"}, {"measurement": "effect on EGFR signal pathway", "setting": "[3]", "value": "obviously less potent"}]}]}
